Experimental data reported in BigSolDB 2.1.

COC1=C(OC)C(=O)C(C/C=C(\C)CC/C=C(\C)CC/C=C(\C)CC/C=C(\C)CC/C=C(\C)CC/C=C(\C)CC/C=C(\C)CC/C=C(\C)CC/C=C(\C)CCC=C(C)C)=C(C)C1=O
solubility (mole fraction)
Conditions | in ethanol | in ethyl acetate | in isopropanol | in n-butanol | in n-hexane | in n-propanol
270.15 K | 1e-05 | 0.0006 | 7e-06 | 1e-05 | 0.0009 | –
280.15 K | 1.1e-05 | 0.0033 | 8e-06 | 1.7e-05 | 0.0044 | 0.0002
290.15 K | 1.6e-05 | 0.0178 | 6.2e-05 | 0.0001 | 0.0207 | 0.0005
300.15 K | 6.1e-05 | 0.09 | 0.0005 | 0.0011 | 0.0931 | 0.0014
310.15 K | 0.0002 | 0.431 | 0.0029 | 0.0107 | 0.399 | 0.0039
320.15 K | 0.0014 | 0.647 | 0.0165 | 0.0934 | 0.55 | 0.011
